Legend:
A2AR = conditions: ref [36]; cited from earlier work
Nb6E-E2-PTHR1 = assay: cell signaling assay Nb6E-E2-PTHR1; assay type: cell-based; conditions: comparison with past work ref [26]

| Compound | A2AR agonism (A2AR) | potency relative to past work using wild-type PTHR1 (Nb6E-E2-PTHR1) |
| --- | --- | --- |
| CCNC(=O)[C@H]1O[C@@H](n2cnc3c(N)nc(NCCc4ccc(CCC(=O)O)cc4)nc32)[C@H](O)[C@@H]1O [CGS21680] | potent agonist of A2AR |  |
| PTH(1–34): prototypical PTHR1 ligand |  | potency comparable to past work using wild-type PTHR1 |

Reference: publication PMC10200341 (Bioconjugate chemistry, 2022)
